{
  "source": "patent US20040038933A1",
  "about": "“Pharmaceutical compositions, dose and method for treating malaria” (priority 2000, published 2004)",
  "key": {"P. falcipanini": {"tested_on": "P. falcipanini", "assay": "Recovery from fever in patients with severe malaria, combined administration of CRDS and artesunate", "assay_type": "in vivo", "settings": "CRDS 4 mg/kg i.v. infusion every 8 hours for 4 days, artesunate i.v. 120 mg then 60 mg every 12 hours up to 600 mg, 22 patients per group, FIG. 1", "procedure": "Sodium curdlan sulfate (hereinafter referred to as “CRDS”; molecular weight 80,000; sulfur content 14.5%) was used as a sulfated polysaccharide and artesunate (dihydroartemisinin hemisuccinate, see formula I, J. Med. Chem., 30, 2147 (1987)) was used as an artemisinin compound.\n(§1) CRDS was used as a solution containing 100 mg of CRDS, 50 mg of mannitol, 18 mg of dibasic sodium phosphate and phosphate buffer (pH 6.5) per vial.\n(§2) CRDS was intravenously administered (infusion) at 4 mg/kg every 8 hours in a total daily dose of 12 mg/kg for 4 days.\n(§3) Physiological saline was used as a placebo and administered according to the same schedule as for CRDS.\nArtesunate (60 mg/vial) was intravenously administered to both CRDS and placebo groups at a dose of initially 120 mg, and then 60 mg every 12 hours up to a total dose of 600 mg (according to the current standard therapy in the Bangkok Hospital for Tropical Diseases). If possible, tablets containing 50 mg of artesunate were orally administered.\nFifty patients were randomly divided into a CRDS group and a placebo group. The patients were males and females at the ages of 12-65 in whom P. falcipanini was found. The patients had symptoms of severe malaria (with hypoglycemia corrected) and excluded those having symptoms of cerebral malaria. […]\nThe time required for each patient to recover from fever after starting the treatment was recorded. […]"}, "[1]": {"tested_on": "asexual malarial parasites", "assay": "Recovery from coma in patients with severe/cerebral malaria, combined administration of CRDS and artesunate", "assay_type": "in vivo", "settings": "male patients in a coma, Glasgow Coma Score, CRDS 4 mg/kg i.v. infusion every 8 hours for 4 days, artesunate i.v. up to 600 mg, 13 patients per group, FIG. 2", "procedure": "CRDS (molecular weight 80,000; sulfur content 14.5%) was used as a sulfated polysaccharide and artesunate was used as an artemisinin compound.\nas §1, §2, §3\nArtesunate (60 mg/vial) was intravenously administered to both CRDS and placebo groups at a dose of initially 120 mg, and then 60 mg every 12 hours up to a total dose of 600 mg. If possible, tablets containing 50 mg of artesunate were orally administered.\nComa was determined by Glasgow Coma Score.\nFor each of the CRDS group and the placebo group, 13 patients completed this protocol. The time required for each patient to recover from coma was recorded. Fisher's exact test was used to compare the number of patients who recovered from coma within 120 hours between both groups (CRDS group and placebo group)."}},
  "data": [
    {"smiles": "C[C@H]1[C@H](OC(=O)CCC(=O)O)O[C@@H]2O[C@@]3(C)CC[C@H]4[C@H](C)CC[C@@H]1[C@@]24OO3", "note": "[artesunate, dihydroartemisinin hemisuccinate]", "values": [
      {"measurement": "time required for all the patients to recover from fever", "setting": "P. falcipanini", "result": 9, "unit": "days"},
      {"measurement": "time required for all the patients to recover from coma", "setting": "[1]", "result": 9, "unit": "days"}
    ]}
  ]
}
